In publication PMC7961380, “A Systematic Study of the In Vitro Pharmacokinetics and Estimated Human In Vivo Clearance of Indole and Indazole-3-Carboxamide Synthetic Cannabinoid Receptor Agonists Detected on the Illicit Drug Market” (Molecules, 2021):
Like-named read-outs stand apart in the source and are kept apart here.

Experiments:
[1] = test system: pooled human cryopreserved hepatocytes (pHHeps); assay: Metabolic stability, pooled human cryopreserved hepatocyte incubations; conditions: for Predicted In Vivo Hepatic Clearance, CLH: from pHHeps CLint, well-stirred model with plasma fu, Q 21 mL min^−1 kg^−1; for T1/2: pHHeps 0.25 million cells mL^−1, 0.5 µM, 37 °C, n ≥ 3 ± SD; for Intrinsic clearance, CLint: alternative hepatocyte cell density 99x10^6 hepatocytes per gram liver
[2] = Metabolic stability, pooled human liver microsome incubations; conditions: for Predicted In Vivo Hepatic Clearance, CLH: from pHLM CLint, well-stirred model with plasma fu, Q 21 mL min^−1 kg^−1; for T1/2: pHLM 0.5 mg mL^−1, 0.5 µM, NADPH, 37 °C; for T1/2 / Microsomal Intrinsic Clearance, CLint micr: n ≥ 3 ± SD
Protocol: Total incubation volume was 500 µL. Procedure: Test compound working solutions (50 µM in potassium phosphate buffer (pH 7.4)) were prepared (<1% DMSO). pHLM were thawed and diluted in potassium phosphate buffer (pH 7.4). […] Reactions were quenched in 200 µL ACN spiked with donepezil (IS, 50 ng mL^−1). […] Samples were analysed by UPLC-MS/MS in a 96 deep-well 2 mL plate. Each SCRA was incubated at least in triplicate but additional incubations were carried out across a number of analytical batches, giving greater replication and a greater understanding of system variability. Microsomal scaling factors used for human liver microsome incubations in the literature vary. Intrinsic clearance and predicted in vivo clearance rates calculated using alternative scaling factors found in the literature is provided in Section S6 of the supplementary information, to aid comparison of data between publications.
Equations used for in vitro intrinsic clearance calculation and human in vivo clearance […]
The equations used for in vitro intrinsic clearance calculation and human in vivo clearance estimation […]
Microsomal clearance (HLM incubations) in mL min-1 mg microsomal protein-1 [3]
Intrinsic clearance (whole-liver dimensions) (HLM incubations) in mL min-1 kg-1 [3] CL = k x V x [Liver](g) x SF Eqn. 7 […]
mg g microsomal protein-1 [7]
Intrinsic clearance (whole-liver dimensions) (HHep incubations) in mL min-1 kg-1 [4] CL = k x V x hepatocytes/g liver x [Liver](g) Eqn. 8 […]
Where: hepatocytes/g liver = 107x10^6 cells/g liver
Hepatic clearance in mL min-1 kg-1 [3]
[…] Eqn. 9
Where: Q = hepatic blood flow, 21 mL min-1 kg-1 [9]; fu = fraction unbound (plasma); CLint = […]
Estimated human hepatic extraction ratio [5]
Intrinsic clearance data – pooled human liver microsome incubations […]
table S4-28. Intrinsic clearance and predicted in vivo data calculated using alternative microsomal scaling factors found in the literature – 32 [10] and 45 [11] mg microsomal protein per gram liver – are provided in tables S29 and S30, respectively.

[3] = Plasma protein binding by equilibrium dialysis; type: in vitro ADME, human; conditions: 37 °C; for fraction unbound at 5 h, 10 µg mL^−1: human, pooled human plasma, pH 7.4, equilibrium dialysis 5 h
Protocol: Plasma protein binding was assessed by equilibrium dialysis in a 96-well dialysis block (HTDialysis, Ledyard, CT, USA). Dialysis membranes (12–14 kDa) were soaked in deionised water for at least 60 min. Membranes were soaked overnight at 4 °C in ethanol:water 20:80% v/v and then rinsed with deionised water immediately prior to use. […] Spiked plasma (150 µL) was dialysed against isotonic phosphate buffer (pH 7.4) (150 µL) for 5 h at 37 °C with shaking at 100 rpm. Thermal degradation controls for each test compound were kept at 37 °C and 4 °C. Blank control plasma and buffer were included in the incubation. Following incubation, dialysed plasma samples and thermal degradation controls (50 µL) were added to drug-free buffer (50 µL), and dialysed buffer samples (50 µL) were added to drug-free plasma (50 µL). […] Supernatant (150 µL) was added to 50 µL deionised water and samples were analysed by UPLC-MS/MS as described above. Dialysed buffer from each well was tested for protein contamination using BCA protein assay reagent to determine whether membranes had been compromised.
Bu = Analyte/IS ratio determined in buffer side (2) Fraction unbound, fu=(100−% bound)/100

[4] = Short-term plasma stability with and without esterase inhibitors; conditions: 3 h, 37 °C; for Parent Compound Remaining (%), Esterase Inhibitors: pH 7.4, BNPP and PMSF 500 µM each; for Parent Compound Remaining (%), No Esterase Inhibitors: pH 7.4, pooled human plasma
Protocol: The pooled plasma used for both plasma stability and plasma binding studies originated from 50 donors, collected as whole blood from donors in the United States at an FDA-approved collection center, processed into plasma by centrifugation and immediately frozen (Innovative Research; Novi, MI, USA) and purchased from Patricell (Nottingham, UK). […] Stock solutions were prepared in DMSO. […] For incubations without inhibitor an equivalent volume of DMSO was included. Plasma mixture was pre-incubated at 37 °C for 5 min. Test compounds (5 µM) and procaine (positive control, 50 µM) were added to pre-warmed plasma mixture containing inhibitors. Incubation volume was 1 mL. Samples were mixed and 80 µL was immediately sampled and quenched into 200 µL ACN spiked with donepezil (internal standard (IS), 50 ng mL^−1). […] Peak area ratio of analyte to IS was used to determine half-lives of test compounds in plasma, both with and without the presence of esterase inhibitors.
The human plasma used was pooled from 50 donors, and was collected as whole blood from donors in
the United States at an FDA-approved collection center, processed into plasma by centrifugation and
The stability of the tested SCRAs, select metabolites and procaine control in pooled human plasma over
inhibitors bis(4-nitrophenyl) phosphate (BNPP) and phenyl methyl sulphonyl fluoride (PMSF) is

[5] = pHHeps, 99x10^6 hepatocytes per gram liver
[6] = pHLM, alternative microsomal scaling factor 32 mg microsomal protein per gram liver
[7] = pHLM, alternative microsomal scaling factor 45 mg microsomal protein per gram liver
[8] = pHLM, scaling factor 32 mg microsomal protein per gram liver
[9] = pHLM, scaling factor 45 mg microsomal protein per gram liver
[10] = 10 µg mL^−1, read-out: PPB (%) (converted)

## COC(=O)[C@H](NC(=O)c1nn(CCCCF)c2ccccc12)C(C)(C)C [(R)-4F-MDMB-BINACA (4), methyl 2-[1-(4-fluorobutyl)-1H-indazole-3-carboxamido]-3,3-dimethylbutanoate]
[1]
  Predicted In Vivo Hepatic Clearance, CLH: 8.77 ± 1.43 mL/min/kg
  T1/2: 58 ± 17.2 min
[1]; from pHHeps incubations
  Hepatic extraction ratio, EH: 0.42 ± 0.068
[1]; [5]
  Hepatic extraction ratio, EH: 0.40 ± 0.067
  Predicted in vivo hepatic clearance, CLH: 8.38 ± 1.40 mL/min/kg
[1]; pHHeps, 3 min
  % parent compound remaining, Average: 89.2%
[1]; pHHeps, 6 min
  % parent compound remaining, Average: 84.6%
[1]; pHHeps, 9 min
  % parent compound remaining, Average: 91.0%
[1]; pHHeps, 15 min
  % parent compound remaining, Average: 82.6%
[1]; pHHeps, 30 min
  % parent compound remaining, Average: 65.7%
[1]; pHHeps, 45 min
  % parent compound remaining, Average: 48.5%
[1]; pHHeps, 60 min
  % parent compound remaining, Average: 37.9%
[1]; pHHeps
  Intrinsic clearance, CLint: 128 ± 34.6 mL/min/kg
[2]
  Predicted In Vivo Hepatic Clearance, CLH: 8.55 ± 0.24 mL/min/kg
  T1/2: 14 ± 0.68 min
[2]; from pHLM incubations
  Hepatic extraction ratio, EH: 0.41 ± 0.012
[2]; pHLM, 3 min
  % parent compound remaining, Average: 78.8%
[2]; pHLM, 6 min
  % parent compound remaining, Average: 72.8%
[2]; pHLM, 9 min
  % parent compound remaining, Average: 54.1%
[2]; pHLM, 15 min
  % parent compound remaining, Average: 48.4%
[2]; pHLM, 30 min
  % parent compound remaining, Average: 26.6%
[2]; [6]
  Intrinsic clearance, CLint: 79 mL/min/kg
[2]; [7]
  Intrinsic clearance, CLint: 112 mL/min/kg
[2]; pHLM
  Microsomal Intrinsic Clearance, CLint micr: 0.096 ± 0.005 mL min^−1 mg Microsomal Protein^−1
[2]; [8]
  Hepatic extraction ratio, EH: 0.30 ± 0.010
  Predicted in vivo hepatic clearance, CLH: 6.20 mL/min/kg
[2]; [9]
  Hepatic extraction ratio, EH: 0.37 ± 0.011
  Predicted in vivo hepatic clearance, CLH: 7.78 mL/min/kg
[3]; [10]
  fraction unbound at 5 h, 10 µg mL^−1: 0.111
[4]
  Parent Compound Remaining (%), Esterase Inhibitors: 96.0 ± 1.7%
  Parent Compound Remaining (%), No Esterase Inhibitors: 91.1 ± 6.8%

## COC(=O)[C@H](NC(=O)c1cn(CCCCCF)c2ccccc12)C(C)(C)C [(R)-5F-MDMB-PICA (3), methyl 2-[1-(5-fluoropentyl)-1H-indole-3-carboxamido]-3,3-dimethylbutanoate]
[1]
  Predicted In Vivo Hepatic Clearance, CLH: 6.27 ± 0.74 mL/min/kg
  T1/2: 54 ± 9.4 min
[1]; from pHHeps incubations
  Hepatic extraction ratio, EH: 0.30 ± 0.035
[1]; [5]
  Hepatic extraction ratio, EH: 0.28 ± 0.034
  Predicted in vivo hepatic clearance, CLH: 5.94 ± 0.72 mL/min/kg
[1]; pHHeps, 3 min
  % parent compound remaining, Average: 87.4%
[1]; pHHeps, 6 min
  % parent compound remaining, Average: 85.8%
[1]; pHHeps, 9 min
  % parent compound remaining, Average: 88.6%
[1]; pHHeps, 15 min
  % parent compound remaining, Average: 78.8%
[1]; pHHeps, 30 min
  % parent compound remaining, Average: 64.9%
[1]; pHHeps, 45 min
  % parent compound remaining, Average: 51.8%
[1]; pHHeps, 60 min
  % parent compound remaining, Average: 43.7%
[1]; pHHeps
  Intrinsic clearance, CLint: 134 ± 22.3 mL/min/kg
[2]
  Predicted In Vivo Hepatic Clearance, CLH: 7.22 ± 0.05 mL/min/kg
  T1/2: 11 ± 0.11 min
[2]; from pHLM incubations
  Hepatic extraction ratio, EH: 0.34 ± 0.002
[2]; pHLM, 3 min
  % parent compound remaining, Average: 72.6%
[2]; pHLM, 6 min
  % parent compound remaining, Average: 62.5%
[2]; pHLM, 9 min
  % parent compound remaining, Average: 52.6%
[2]; pHLM, 15 min
  % parent compound remaining, Average: 36.8%
[2]; pHLM, 30 min
  % parent compound remaining, Average: 16.4%
[2]; [6]
  Intrinsic clearance, CLint: 108 ± 1.13 mL/min/kg
[2]; [7]
  Intrinsic clearance, CLint: 152 ± 1.59 mL/min/kg
[2]; pHLM
  Microsomal Intrinsic Clearance, CLint micr: 0.132 ± 0.001 mL min^−1 mg Microsomal Protein^−1
[2]; [8]
  Hepatic extraction ratio, EH: 0.24 ± 0.002
  Predicted in vivo hepatic clearance, CLH: 5.09 ± 0.04 mL/min/kg
[2]; [9]
  Hepatic extraction ratio, EH: 0.31 ± 0.002
  Predicted in vivo hepatic clearance, CLH: 6.51 ± 0.05 mL/min/kg
[3]; equilibrium dialysis 5 h, 10 µg mL^−1
  PPB (%): 93.8 ± 0.15%
[3]; equilibrium dialysis 5 h, plasma
  Fraction Unbound (fu): 0.062 ± 0.0015
[4]
  Parent Compound Remaining (%), Esterase Inhibitors: 97.7 ± 5.6%
  Parent Compound Remaining (%), No Esterase Inhibitors: 103.2 ± 14.5%

## COC(=O)[C@H](NC(=O)c1nn(CCCCCF)c2ccccc12)C(C)(C)C [(R)-5F-MDMB-PINACA (2), methyl 2-[1-(5-fluoropentyl)-1H-indazole-3-carboxamido]-3,3-dimethylbutanoate]
[1]
  Predicted In Vivo Hepatic Clearance, CLH: 8.16 ± 0.38 mL/min/kg
  T1/2: 23 ± 1.8 min
[1]; from pHHeps incubations
  Hepatic extraction ratio, EH: 0.39 ± 0.018
[1]; pHHep lot HUE50-N
  half-life: 22.9 ± 1.8 min
[1]; pHHep lot HUE50-P
  half-life: 6.5 ± 0.13 min
[1]; [5]
  Hepatic extraction ratio, EH: 0.37 ± 0.018
  Predicted in vivo hepatic clearance, CLH: 7.78 ± 0.38 mL/min/kg
[1]; pHHeps, 3 min
  % parent compound remaining, Average: 84.1%
[1]; pHHeps, 6 min
  % parent compound remaining, Average: 67.3%
[1]; pHHeps, 9 min
  % parent compound remaining, Average: 55.7%
[1]; pHHeps, 15 min
  % parent compound remaining, Average: 45.8%
[1]; pHHeps, 30 min
  % parent compound remaining, Average: 27.3%
[1]; pHHeps, 45 min
  % parent compound remaining, Average: 17.9%
[1]; pHHeps, 60 min
  % parent compound remaining, Average: 13.6%
[1]; pHHeps
  Intrinsic clearance, CLint: 309 ± 23.6 mL/min/kg
[2]
  Predicted In Vivo Hepatic Clearance, CLH: 6.52 ± 0.61 mL/min/kg
  T1/2: 8.0 ± 1.1 min
[2]; from pHLM incubations
  Hepatic extraction ratio, EH: 0.31 ± 0.029
[2]; pHLM, 3 min
  % parent compound remaining, Average: 71.1%
[2]; pHLM, 6 min
  % parent compound remaining, Average: 58.2%
[2]; pHLM, 9 min
  % parent compound remaining, Average: 44.4%
[2]; pHLM, 15 min
  % parent compound remaining, Average: 28.9%
[2]; pHLM, 30 min
  % parent compound remaining, Average: 8.7%
[2]; [6]
  Intrinsic clearance, CLint: 145 mL/min/kg
[2]; [7]
  Intrinsic clearance, CLint: 204 mL/min/kg
[2]; pHLM
  Microsomal Intrinsic Clearance, CLint micr: 0.176 ± 0.024 mL min^−1 mg Microsomal Protein^−1
[2]; [8]
  Hepatic extraction ratio, EH: 0.22 ± 0.023
  Predicted in vivo hepatic clearance, CLH: 4.53 ± 0.48 mL/min/kg
[2]; [9]
  Hepatic extraction ratio, EH: 0.28 ± 0.027
  Predicted in vivo hepatic clearance, CLH: 5.85 ± 0.57 mL/min/kg
[3]; [10]
  fraction unbound at 5 h, 10 µg mL^−1: 0.04
[3]; plasma, read-out: Fraction Unbound (fu)
  fraction unbound at 5 h, 10 µg mL^−1: 0.04 ± 0.0058
[4]
  Parent Compound Remaining (%), Esterase Inhibitors: 100.1 ± 7.0%
  Parent Compound Remaining (%), No Esterase Inhibitors: 95.9 ± 6.7%
